Experimental data taken from patent US8350048B2, “Amide compounds as boosters of antivirals” (Janssen R&D Ireland, priority 2007, dated 2013).

Assays:
[1] = Toxicity, mock-infected MT4 CMV-EGFP cells; format: cell-based, human; conditions: human, mock-infected MT4 CMV-EGFP cells; read-out: Toxicity MT4 (pCC50) (converted)
Excerpt: (§1) Assay 1 &2: Antiviral Activity/Toxicity
Analogously, MT4 cells are engineered with GFP and the constitutional cytomegalovirus (CMV) promotor. […] Cytotoxic investigational compounds reduce GFP levels of mock-infected MT4 CMV-EGFP cells.
(§2) The ratio of CC50 to EC50 is defined as the selectivity index (SI) and is an indication of the selectivity of the anti-HIV activity of the inhibitor. The ultimate monitoring of HIV-1 infection and cytotoxicity is done using a scanning microscope. Image analysis allows very sensitive detection of viral infection. Measurements are done before cell necrosis, which usually takes place about five days after infection, in particular measurements are performed three days after infection.
(§3) A pEC50 value corresponds to −log10(EC50). A pCC50 value corresponds to −log10(CC50).

[2] = molecular target: T1, CYP3A4 (Homo sapiens, UniProt P08684); experiment: CYP450 inhibition CDNA-CYP3A4-BQ; conditions: human, E. coli expressed CYP3A4, pH 7.4, probe BQ 60 μM
T1 sequence (P08684 whole entry): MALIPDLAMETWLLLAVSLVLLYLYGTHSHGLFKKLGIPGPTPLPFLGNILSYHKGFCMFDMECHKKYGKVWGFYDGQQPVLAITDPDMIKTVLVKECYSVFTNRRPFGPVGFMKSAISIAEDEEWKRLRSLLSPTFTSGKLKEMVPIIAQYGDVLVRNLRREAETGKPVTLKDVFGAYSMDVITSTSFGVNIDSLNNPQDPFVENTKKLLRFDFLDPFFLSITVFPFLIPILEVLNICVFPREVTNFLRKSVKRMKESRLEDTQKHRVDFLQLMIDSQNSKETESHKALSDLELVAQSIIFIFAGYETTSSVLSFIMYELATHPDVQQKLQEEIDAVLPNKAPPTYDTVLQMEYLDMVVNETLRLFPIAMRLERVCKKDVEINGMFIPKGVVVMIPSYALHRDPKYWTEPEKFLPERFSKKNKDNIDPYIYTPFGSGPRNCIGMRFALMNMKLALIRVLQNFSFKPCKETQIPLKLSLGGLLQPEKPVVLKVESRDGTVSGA
Excerpt: (§4) Assay 4: CYP450 Inhibition

[3] = molecular target: CYP2D6 (Homo sapiens, UniProt P10635); experiment: in vitro; conditions: pH 7.4
Sequence of CYP2D6 (P10635 whole entry): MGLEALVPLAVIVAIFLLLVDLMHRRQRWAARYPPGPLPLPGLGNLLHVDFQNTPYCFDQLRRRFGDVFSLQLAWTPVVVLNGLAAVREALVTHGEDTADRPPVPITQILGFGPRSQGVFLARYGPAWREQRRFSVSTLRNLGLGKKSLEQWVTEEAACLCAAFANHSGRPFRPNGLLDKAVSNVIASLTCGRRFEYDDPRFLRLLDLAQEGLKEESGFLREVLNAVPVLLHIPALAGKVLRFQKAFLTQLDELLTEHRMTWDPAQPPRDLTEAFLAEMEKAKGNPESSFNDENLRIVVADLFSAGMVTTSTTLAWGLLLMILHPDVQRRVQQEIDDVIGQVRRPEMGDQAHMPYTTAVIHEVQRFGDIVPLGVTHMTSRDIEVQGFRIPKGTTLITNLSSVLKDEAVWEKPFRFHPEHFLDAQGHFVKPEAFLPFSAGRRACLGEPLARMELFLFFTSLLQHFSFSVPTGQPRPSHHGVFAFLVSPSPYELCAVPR
Method: (§5) Inhibition of the metabolism of test compounds by different CYP P450 isoenzymes was determined using E. coli expressed proteins (3A4, 2C9, 2D6, 1A2, and 2C19) that convert their specific substrates into a fluorescent molecule (Table 6). This fluorescent molecule was measured using a fluorescent plate reader (Victor2 (Wallac) or Fluoroskan (Labsystems)). […] CYP P450 enzymes were prepared in house or commercially bought and stored at −80° C.
(§6) The assay was performed in black 96 well Costar plates. Test compounds were added to a CYP P450 enzyme solution in the presence of an NADPH generating system. After 5 min of preincubation at 37° C., the freshly prepared, phosphate buffered (pH 7.4) substrate solution was added. Known CYP P450 inhibitors were used as positive controls, negative controls were run without CYP P450 enzyme. […] Reaction mixtures were incubated at 37° C. for 30 min (CYP3A4-BFC), 30 min (CYP3A4-BQ), 10 min (CYP3A4-DBF), 15 min (CYP1A2-CEC), 30 min (CYP2C9-MFC, CYP2C19-CEC), or 45 min (CYP2D6-AMMC), respectively. Then, the reaction was stopped by the addition of 200 μl acetonitrile, and the fluorescent signal was detected.
(§7) Calculation of CYP P450 isoenzyme inhibition (% inh.):
(§8) % activity=(100/(average positive control−average negative control))×(average sample−average negative control)

[4] = molecular target: CYP2C19 (Homo sapiens, UniProt P33261); experiment: in vitro; conditions: E. coli expressed CYP2C19, pH 7.4, probe CEC 25 μM
Sequence of CYP2C19 (P33261 whole entry): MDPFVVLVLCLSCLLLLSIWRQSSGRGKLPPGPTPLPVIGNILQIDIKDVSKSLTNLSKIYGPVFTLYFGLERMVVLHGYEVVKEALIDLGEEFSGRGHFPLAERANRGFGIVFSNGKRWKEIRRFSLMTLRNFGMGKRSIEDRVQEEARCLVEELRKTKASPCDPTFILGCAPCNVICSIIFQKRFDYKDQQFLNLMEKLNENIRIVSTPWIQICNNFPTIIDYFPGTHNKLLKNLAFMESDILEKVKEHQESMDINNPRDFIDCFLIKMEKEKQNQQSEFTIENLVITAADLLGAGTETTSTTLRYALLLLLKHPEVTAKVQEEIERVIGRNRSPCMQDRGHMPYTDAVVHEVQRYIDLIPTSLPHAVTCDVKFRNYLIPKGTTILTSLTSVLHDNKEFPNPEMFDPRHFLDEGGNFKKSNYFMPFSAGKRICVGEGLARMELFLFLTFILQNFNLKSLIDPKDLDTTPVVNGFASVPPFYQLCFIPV
Method: as §5, §6, §7, §8

[5] = molecular target: CYP2C9 (Homo sapiens, UniProt P11712); experiment: in vitro; conditions: human, pH 7.4
Sequence of CYP2C9 (P11712 whole entry): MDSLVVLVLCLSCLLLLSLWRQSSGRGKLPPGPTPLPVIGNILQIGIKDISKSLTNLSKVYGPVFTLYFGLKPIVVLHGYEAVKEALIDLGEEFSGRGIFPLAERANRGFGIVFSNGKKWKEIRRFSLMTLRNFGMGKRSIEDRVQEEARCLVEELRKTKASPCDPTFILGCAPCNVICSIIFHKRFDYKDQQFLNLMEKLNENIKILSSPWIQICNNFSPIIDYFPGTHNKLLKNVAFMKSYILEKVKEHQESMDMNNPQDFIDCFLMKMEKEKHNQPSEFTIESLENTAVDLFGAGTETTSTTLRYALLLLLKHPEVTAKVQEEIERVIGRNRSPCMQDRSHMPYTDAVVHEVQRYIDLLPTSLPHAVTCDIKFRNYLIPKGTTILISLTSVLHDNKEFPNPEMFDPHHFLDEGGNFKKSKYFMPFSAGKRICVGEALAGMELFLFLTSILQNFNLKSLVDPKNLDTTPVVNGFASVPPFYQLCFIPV
Excerpt: as §4

[6] = molecular target: T1, CYP3A4; experiment: in vitro; conditions: human, pH 7.4
Excerpt: as §4

[7] = Metabolic stability of test compounds (HLM15'); format: in vitro ADME, human; conditions: pH 7.4; human liver microsomes 1 mg/ml, 5 μM test compound, 15 min; read-out: Metabolic stability (HLM, % recovery after 15')
Excerpt: Human liver tissue is rinsed in ice-cold 0.1 M Tris-HCl (pH 7.4) buffer to wash excess blood. Tissue is then blotted dry, weighed and chopped coarsely using surgical scissors. The tissue pieces are homogenized in 3 volumes of ice-cold 0.1 M phosphate buffer (pH 7.4) using either a Potter-S (Braun, Italy) equipped with a Teflon pestle or a Sorvall Omni-Mix homogenizer, for 7×10 sec. In both cases, the vessel is kept in/on ice during the homogenization process. Tissue homogenates are centrifuged at 9000×g for 20 min at 4° C. using a Sorvall centrifuge or Beckman Ultracentrifuge. The resulting supernatant can be stored at −80° C. and is designated ‘S9’. The S9 fraction is centrifuged at 100,000×g for 60 min at 4° C. using a Beckman ultracentrifuge. The resulting supernatant is carefully aspirated, aliquoted and designated ‘cytosol’. The pellet is re-suspended in 0.1 M phosphate buffer (pH 7.4) in a final volume of 1 ml per 0.5 g original tissue weight and designated ‘microsomes’. All sub-cellular fractions are aliquoted, immediately frozen in liquid nitrogen and stored at −80° C. until use.
Heat-inactivated (10 min at 95° C.) ‘S9’ or microsomes were used for blank experiments. […] The reaction was incubated for 0 or 15 min. Next, the reaction was stopped by addition of 2 volumes of DMSO (or acetonitrile). Samples were centrifuged (10 min, 900×g) and analyzed by LC-MS.

[8] = molecular target: T2, CYP1A2 (Homo sapiens, UniProt P05177); experiment: in vitro; conditions: E. coli expressed CYP1A2, pH 7.4, probe CEC 5 μM
T2 sequence (P05177 1-516): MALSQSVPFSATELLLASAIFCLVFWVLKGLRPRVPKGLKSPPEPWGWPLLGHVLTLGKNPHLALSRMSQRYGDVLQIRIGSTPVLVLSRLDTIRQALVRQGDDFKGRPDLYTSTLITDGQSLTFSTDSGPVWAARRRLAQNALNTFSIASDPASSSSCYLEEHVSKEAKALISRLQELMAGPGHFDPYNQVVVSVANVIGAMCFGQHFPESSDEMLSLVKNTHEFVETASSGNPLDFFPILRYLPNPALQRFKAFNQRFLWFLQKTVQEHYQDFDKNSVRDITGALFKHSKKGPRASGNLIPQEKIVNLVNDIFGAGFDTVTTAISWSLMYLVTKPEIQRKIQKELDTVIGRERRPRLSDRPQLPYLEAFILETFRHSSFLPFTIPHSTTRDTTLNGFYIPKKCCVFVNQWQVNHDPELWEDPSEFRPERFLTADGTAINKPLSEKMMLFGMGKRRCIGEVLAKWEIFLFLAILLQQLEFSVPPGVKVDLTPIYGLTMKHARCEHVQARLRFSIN
Method: as §5, §6, §7, §8

[9] = molecular target: T1, CYP3A4; experiment: CYP450 inhibition CDNA-CYP3A4-BFC; conditions: human, E. coli expressed CYP3A4, pH 7.4, probe BFC 150 μM
Excerpt: as §4

[10] = system: wild-type HIV-1IIIB strain; experiment: Antiviral activity, MT4 LTR-EGFP cellular assay; format: cell-based; conditions: Human immunodeficiency virus 1, 72 h; wild-type HIV-1 IIIB, MT4 LTR-EGFP cells, three days after infection; read-out: Antiviral activity IIIB (pEC50) (converted)
Method: as §1
The compounds of the present invention were tested for antiviral activity in a cellular assay, which was performed according to the following procedure.
The human T-cell line MT4 is engineered with Green Fluorescent Protein (GFP) and an HIV-specific promoter, HIV-1 long terminal repeat (LTR). This cell line is designated MT4 LTR-EGFP, and can be used for the in vitro evaluation of anti-HIV activity of investigational compounds. In HIV-1 infected cells, the Tat protein is produced which upregulates the LTR promotor and finally leads to stimulation of the GFP reporter production, allowing measuring ongoing HIV-infection fluorometrically.
as §2, §3

| inhibition at 30 min, 10 μM [2] [%] | inhibition at 45 min, 10 μM [3] [%] | inhibition at 30 min, 10 μM [4] [%] | inhibition at 30 min, 10 μM [5] [%] | inhibition at 10 min, 10 μM [6] [%] | recovery at 15 min, 5 μM [7] [%] | inhibition at 15 min, 10 μM [8] [%] | inhibition at 30 min, 10 μM [9] [%] | EC50 [10] [µM] | SMILES | CC50 at 3 days [1] [µM] |
| --- | --- | --- | --- | --- | --- | --- | --- | --- | --- | --- |
| 72 | 12 | 75 | 92 | 93 | 57 | 4 | 81 | > 100 | CC(C)CN(C[C@@H](O)[C@H](Cc1ccccc1)NC(=O)OCc1cncs1)C(=O)c1ccc2ncn(C)c2c1 [Compound C8, Thiazol-5-ylmethyl (2S,3R)-3-hydroxy-4-(N-isobutyl-1-methyl-1H-benzo[d]-imidazole-6-carboxamido)-1-phenylbutan-2-ylcarbamate] | > 100 |
| 76 | 59 | 101 | 96 | 96 | 57 | 7 | 96 | 60.3 | C#CCN(C[C@@H](O)[C@H](Cc1ccccc1)NC(=O)OCc1cncs1)C(=O)c1ccc2nc(N(C)CC)oc2c1 [Compound C35, Thiazol-5-ylmethyl (2S,3R)-4-(2-(ethyl(methyl)amino)-N-(prop-2-ynyl)benzo[d]oxazole-6-carboxamido)-3-hydroxy-1-phenylbutan-2-ylcarbamate] | 75.9 |
| 79 | 97 | 67 | 96 | 93 | 25 | 18 | 98 | > 100 | CC(C)CN(C[C@@H](O)[C@H](Cc1ccccc1)NC(=O)OCc1cncs1)C(=O)c1ccc2nc(N3CCN(C)CC3)oc2c1 [Compound C15, Thiazol-5-ylmethyl (2S,3R)-3-hydroxy-4-(N-isobutyl-2-(4-methylpiperazin-1-yl)benzo[d]oxazole-6-carboxamido)-1-phenylbutan-2-ylcarbamate] | > 100 |
| 80 | 45 | 90 | 100 | 95 | 71 | 19 | 95 | 36.3 | CC(C)CN(C[C@@H](O)[C@H](Cc1ccccc1)NC(=O)OCc1cncs1)C(=O)c1ccc2nc(N3CCCCC3)oc2c1 [Compound C3, Thiazol-5-ylmethyl (2S,3R)-3-hydroxy-4-(N-isobutyl-2-(piperidin-1y1)-benzo[d]oxazole-6-carboxamido)-1-phenylbutan-2-ylcarbamate] | 32.4 |
| 74 | 56 | 79 | 89 | 91 | 60 | 0 | 94 | > 100 | Cc1nc2ccc(C(=O)N(CC(C)C)C[C@@H](O)[C@H](Cc3ccccc3)NC(=O)OCc3cncs3)cc2o1 [Compound C40, Thiazol-5-ylmethyl (2S,3R)-3-hydroxy-4-(N-isobutyl-2-methylbenzo[d]-oxazole-6-carboxamido)-1-phenylbutan-2-ylcarbamate] | > 100 |
| 77 | 32 | 97 | 99 | 94 | 58 | 6 | 90 | > 100 | CCN(C[C@@H](O)[C@H](Cc1ccccc1)NC(=O)OCc1cncs1)C(=O)c1ccc2nc(N(C)CC)oc2c1 [Compound C29, Thiazol-5-ylmethyl (2S,3R)-4-(N-ethyl-2-(ethyl(methyl)amino)benzo[d]-oxazole-6-carboxamido)-3-hydroxy-1-phenylbutan-2-ylcarbamate] | 81.3 |
| 80 | 89 | 36 | 34 | 91 | 59 | 0 | 93 | > 100 | CC(C)CN(C[C@@H](O)[C@H](Cc1ccccc1)NC(=O)OCc1cncs1)C(=O)c1ccc2nc(NCCN(C)C)oc2c1 [Compound C16, Thiazol-5-ylmethyl (2S,3R)-4-(2-(2-(dimethylamino)ethylamino)-N-isobutyl-benzo[d]oxazole-6-carboxamido)-3-hydroxy-1-phenylbutan-2-ylcarbamate] | > 100 |
| 71 | 99 | 70 | 93 | 95 | 13 | 18 | 91 | 49 | CCN(C)c1nc2ccc(C(=O)N(CC(C)C)C[C@@H](O)[C@H](Cc3ccccc3)NC(=O)OCc3ccncc3)cc2o1 [Compound C10, Pyridin-4-ylmethyl (2S,3R)-4-(2-(ethyl(methyl)amino)-N-isobutylbenzo[d]-oxazole-6-carboxamido)-3-hydroxy-1-phenylbutan-2-ylcarbamate] | 46.8 |

| SMILES | inhibition at 30 min, 10 μM [2] [%] | inhibition at 45 min, 10 μM [3] [%] | inhibition at 30 min, 10 μM [4] [%] | inhibition at 30 min, 10 μM [5] [%] | inhibition at 10 min, 10 μM [6] [%] | recovery at 15 min, 5 μM [7] [%] | inhibition at 15 min, 10 μM [8] [%] | inhibition at 30 min, 10 μM [9] [%] | EC50 [10] [µM] | CC50 at 3 days [1] [µM] |
| --- | --- | --- | --- | --- | --- | --- | --- | --- | --- | --- |
| CC(C)CN(C[C@@H](O)[C@H](Cc1ccccc1)NC(=O)OCc1cncs1)C(=O)c1ccc2nc(N)sc2c1 [Compound C6, Thiazol-5-ylmethyl (2S,3R)-4-(2-amino-N-isobutylbenzo[d]thiazole-6-carboxamido)-3-hydroxy-1-phenylbutan-2-ylcarbamate] | 85 | 83 | 94 | 99 | 94 | 70 | 36 | 76 | 75.9 | > 93.3 |
